Experimental data from patent US12624023B2, “Sulfonylurea derivatives and uses thereof” (NodThera Limited, priority 2019, dated 2026).

Columns and labels:
[1] = test system: IL-1β release upon NLRP3 activation in peripheral blood mononuclear cells (PBMC); test: PBMC IC50 determination assay (IL-1β release, LPS priming + ATP stimulation, HTRF); assay type: cell-based; conditions: PBMC from buffy coats; LPS 1 μg/ml 3 h, compound 30 min, ATP 5 mM 1 h; IL-1β by HTRF
How it was run: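 Buffy-coat PBMC were primed with LPS (1 μg/ml) for 3 h, given compound for 30 min, then stimulated with 5 mM ATP for 1 h. IL-1β released into the medium was quantified by HTRF, reading 655 and 620 nm.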

[2] = test system: IL-1β release upon NLRP3 activation in human whole blood; test: Whole blood (WB) assay (IL-1β release, LPS priming + ATP stimulation, HTRF); assay type: cell-based; conditions: heparin, diluted 9:5 with media, LPS 1 μg/ml 3 h, compound 30 min, ATP 5 mM 1 h, IL-1β by HTRF
How it was run: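 Heparinised human whole blood, diluted 9:5 in medium, was primed with LPS (1 μg/ml final) for 3 h. Compound was then added for 30 min, followed by ATP (5 mM final) for 1 h. Secreted IL-1β was measured in the media by HTRF (655/620 nm).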

| IC50 [2] [nM] | SMILES | IC50 [1] [nM] |
| --- | --- | --- |
| < 1000 | Cc1cc(NC(=O)NS(=O)(=O)N(c2cnn(C)c2F)C2CCCN(C)C2)c(C(C)C)s1 (stereo not shown) [Compound 115, 1-[(5-Fluoro-1-methyl-1H-pyrazol-4-yl)(1-methylpiperidin-3-yl)sulfamoyl]-3-[5-methyl-2-(propan-2-yl)thiophen-3-yl]urea] | < 100 |
| < 1000 | Cc1cc(NC(=O)NS(=O)(=O)N(c2cnn(C3CC3)c2)[C@H]2CCCN(C)C2)c(C(C)C)s1 [Compound 103, 1-[(1-Cyclopropyl-1H-pyrazol-4-yl)[(3S)-1-methylpiperidin-3-yl]sulfamoyl]-3-[5-methyl-2-(propan-2-yl)thiophen-3-yl]urea] | < 100 |
